Read-outs that look alike come from different tables or passages of the source.
Experiments:
[1] = system: L. donovani IRFP axenic amastigotes; assay: Primary single-concentration screening on axenic amastigotes, growth inhibition at 72 h; assay type: cell-based, Leishmania donovani; conditions: axenic amastigotes; for inhibition at 1 µM / inhibition at 10 µM: Leishmania donovani; for inhibition at 1 µM / Growth Inhibition (%) at 72h, 1 µM_Exp1 / Growth Inhibition (%) at 72h, 1 µM_Exp2: 1 µM; for inhibition at 10 µM / Growth Inhibition (%) at 72h, 10 µM_Exp1 / Growth Inhibition (%) at 72h, 10 µM_Exp2: 10 µM
[2] = Cytotoxicity in RAW 264.7 cells (alamarBlue, 72 h); conditions: mouse
Procedure: (§1) To this end, we calculated SIs from 16 preselected results from the ex vivo system. With this aim, dose–response curves were performed in duplicate across at least three independent experiments using RAW 264.7 mouse macrophages (as a model of host cells harboring amastigotes) and HepG2 (as a model for assessing systemic toxicity).
(§2) To evaluate the safety of the selected compounds, two cell lines were employed: RAW 264.7 (a mouse macrophage-derived cell line) and HepG2 (a human hepatoma cell line). Furthermore, to determine the intestinal tolerance relevant to potential oral administration, mouse intestinal organoids were prepared.
(§3) RAW 264.7 and HepG2 were routinely cultured under standard conditions. RAW 264.7 cells were maintained in RPMI medium (Gibco) supplemented with, 25 mM HEPES, 24 mM NaHCO3, 2 mM L-glutamine, mixture of antibiotics and 10% FBS. HepG2 cells were cultured in DMEM/F-12 (Gibco) and supplemented 10% of FBS. For cytotoxicity assays, 10,000 cells per well were seeded into 96-well plates and incubated overnight at 37 °C with 5% of CO2. Subsequently, 2-fold serial dilutions of the compounds were added and incubated for 72 h. Cell viability using the alamarBlue™ assay according to the manufacturer’s instructions, and fluorescence was measured with a Varioskan™ LUX microplate reader (ThermoFisher Scientific, Waltham, MA, USA). Non-linear regression analyses were performed using SigmaPlot^TM software (version 10.0) to calculate CC50. Data were obtained from at least three independent experiments performed in duplicate.

[3] = system: L. donovani IRFP intramacrophagic amastigotes; assay: Dose-response assay on ex vivo infected splenic explants (intramacrophagic amastigotes); assay type: cell-based, Leishmania donovani; conditions: read-out: EC50 Intramacrophagic Amastigotes
[4] = Cytotoxicity in HepG2 cells (alamarBlue, 72 h); conditions: human
Procedure: as §1, §2, §3

[5] = system: L. donovani IRFP axenic amastigotes; assay: Dose-response assay on axenic amastigotes; assay type: cell-based, Leishmania donovani
Procedure: The objective of the present study was to identify new antileishmanial drug candidates by screening a commercial library of plant-derived alkaloids using a platform based on axenic amastigotes of L. donovani IRFP—the causative agent of VL—genetically modified to emit infrared fluorescence during their viable stage (hereafter referred to as L. donovani IRFP). To this end, single-dose assays at 10 μM and 1 μM, as well as dose–response assays, were performed. Compounds showing significant activity in the initial screening were subsequently clustered according to chemical structure using the DataWarrior tool, and representative compounds were further evaluated in dose response assays against axenic amastigotes.
Female Balb/c mice aged from 6 to 8 weeks were intraperitoneally inoculated with 1.5 × 10^9 infective L. donovani IRFP metacyclic promastigotes. Between 8 and 12 weeks after infection, mice were humanely euthanised and bone marrow was collected from the femurs and tibias of both hind limbs. The bones were cut at both ends, and prewarmed PBS was flushed through the medullary cavity using a syringe fitted with a 27G needle, to extract the bone marrow cells. The resulting cell suspension was filtered through a 100 µm cell strainer and centrifuged at 2500 rpm for 10 min at room temperature. To obtain free amastigotes, the pelleted cells were resuspended within a 75 mL ventilated flask in amastigote culture medium (15 mM KCl; 136 mM KH2PO4; 10 mM K2HPO4.3H2O; 0.5 mM MgSO4.7 H2O; 24 mM NaHCO3; 22 mM glucose; 1 mM glutamine, 1x RPMI 1640 vitamin mix (Sigma-Aldrich, Merck, Darmstadt, Germany), 10 mM folic acid, […], 1x RPMI amino acid mix (Sigma-Aldrich, Merck, Darmstadt, Germany), […], antibiotic mixture, 25 mM MES, 10% FBS (Gibco, ThermoFisher Scientific, Waltham, MA, USA) and incubated at 37 °C in a humidified atmosphere containing 5% CO2 [46].
The efficacy of the selected compounds was assessed by measuring near-infrared fluorescence (700 nm) using an Odyssey Infrared Imaging System (Li-Cor, Lincoln, NE, USA) following the previously described protocols.

RAW 264.7 = assay: Cytotoxicity in RAW 264.7 cells (alamarBlue, 72 h); conditions: read-out: CC50 RAW 264.7; 72 h, alamarBlue
Procedure: as §1, §2, §3

HepG2 = assay: Cytotoxicity in HepG2 cells (alamarBlue, 72 h); conditions: read-out: CC50 HepG2; 72 h, alamarBlue
Procedure: as §1, §2, §3

[6] = experiment 1, 72 h, read-out: Growth Inhibition (%) at 72h, 1 µM_Exp1
[7] = experiment 2, 72 h, read-out: Growth Inhibition (%) at 72h, 1 µM_Exp2
[8] = experiment 1, 72 h, read-out: Growth Inhibition (%) at 72h, 10 µM_Exp1
[9] = experiment 2, 72 h, read-out: Growth Inhibition (%) at 72h, 10 µM_Exp2
[10] = Leishmania donovani, Splenocyte, primary cultures of infected mouse splenocytes
[11] = Leishmania donovani, Splenocyte, in Mus musculus

**Q.** Which inhibition at 1 µM [1, 6] does the source give for `CC[C@@H]1[C@H]2CCCCN3[C@H]2[C@@H](C[C@H]3[C@@H]2C[C@H](C)C(=O)O2)[C@H]2[C@@H]1OC(=O)[C@H]2C` [Neotuberostemonine] here?
**A.** 38%

**Q.** What about the inhibition at 1 µM [1, 7] of the same compound?
**A.** 69.7%

**Q.** And the inhibition at 10 µM [1, 8]?
**A.** 101%

**Q.** What about the inhibition at 10 µM [1, 9] of the same compound?
**A.** 101%

**Q.** What about the CC50 at 72 h [2] of the same compound?
**A.** 39.1 ± 2.2 µM

**Q.** And the EC50 [3, 10]?
**A.** > 25 µM

**Q.** And the CC50 at 72 h [4]?
**A.** > 50 µM

**Q.** What about the IC50 ([5]; Leishmania donovani) of the same compound?
**A.** 1270 ± 60 nM

**Q.** With `C[n+]1cc2c3c(ccc2c2ccc4cc5c(cc4c21)OCO5)OCO3` [Sanguinarine] as the compound, how does the inhibition at 1 µM [1, 6] read?
**A.** 99.7%

**Q.** And the inhibition at 1 µM [1, 7]?
**A.** 99.5%

**Q.** And the inhibition at 10 µM [1, 8]?
**A.** 100%

**Q.** And the inhibition at 10 µM [1, 9]?
**A.** 101%

**Q.** And the CC50 at 72 h ([2]; RAW 264.7 macrophage cells)?
**A.** 1.84 ± 0.06 µM

**Q.** What about the EC50 [3, 11] of the same compound?
**A.** 0.85 ± 0.03 µM

**Q.** And the CC50 at 72 h ([4]; HepG2 hepatoma cells)?
**A.** 2.08 ± 0.06 µM

**Q.** What about the IC50 ([5]; Leishmania donovani) of the same compound?
**A.** 190 ± 10 nM

**Q.** Which results are given for `CC[C@@H]1[C@H]2CCCCN3[C@H]2[C@H](C[C@H]3[C@@H]2C[C@H](C)C(=O)O2)[C@@H]2[C@H]1OC(=O)[C@H]2C` [Tuberostemonine]?
**A.** inhibition at 1 µM [1, 6]: 63.6%; inhibition at 1 µM [1, 7]: 53%; inhibition at 10 µM [1, 8]: 102%; inhibition at 10 µM [1, 9]: 101%; CC50 at 72 h [2]: 50 ± 5.51 µM; EC50 [3, 10]: > 50 µM; CC50 at 72 h [4]: > 40 µM; IC50 ([5]; Leishmania donovani): 2060 ± 110 nM

**Q.** For `CCOC1c2c(ccc3c2OCO3)-c2ccc3cc4c(cc3c2N1C)OCO4` (centres unmarked) [Ethoxysanguinarine], which “Growth Inhibition (%) at 72h, 1 µM_Exp1” value ([1]; experiment 1, 72 h) is on record?
**A.** 100.74%

**Q.** And the “Growth Inhibition (%) at 72h, 1 µM_Exp2” value ([1]; experiment 2, 72 h)?
**A.** 99.44%

**Q.** And the “Growth Inhibition (%) at 72h, 10 µM_Exp1” value ([1]; experiment 1, 72 h)?
**A.** 100.41%

**Q.** What about the “Growth Inhibition (%) at 72h, 10 µM_Exp2” value ([1]; experiment 2, 72 h) of the same compound?
**A.** 100.07%

**Q.** And the CC50 (RAW 264.7)?
**A.** 1620 ± 110 nM

**Q.** What about the EC50 ([3]; primary cultures of infected mouse splenocytes) of the same compound?
**A.** 0.84 ± 0.03 µM

**Q.** What about the CC50 (HepG2) of the same compound?
**A.** 1440 ± 30 nM

**Q.** What about the IC50 [5] of the same compound?
**A.** 210 ± 30 nM

**Q.** Which inhibition at 1 µM [1, 6] does the source give for `CN1Cc2c(ccc3c2OCO3)-c2ccc3cc4c(cc3c21)OCO4` [Dihydrosanguinarine] here?
**A.** 99.3%

**Q.** What about the inhibition at 1 µM [1, 7] of the same compound?
**A.** 97.6%

**Q.** And the inhibition at 10 µM [1, 8]?
**A.** 99.8%

**Q.** What about the inhibition at 10 µM [1, 9] of the same compound?
**A.** 99.7%

**Q.** What about the CC50 at 72 h [2] of the same compound?
**A.** 46.5 ± 10.1 µM

**Q.** And the EC50 [3, 11]?
**A.** 8.55 ± 1.33 µM

**Q.** And the CC50 at 72 h [4]?
**A.** > 40 µM

**Q.** And the IC50 ([5]; Leishmania donovani)?
**A.** 190 ± 10 nM

**Q.** For `COc1ccc2c(c1OC)CN(C)c1c-2ccc2cc3c(cc12)OCO3` [Dihydrochelerythrine], which inhibition at 1 µM [1, 6] is on record?
**A.** 100%

**Q.** And the inhibition at 1 µM [1, 7]?
**A.** 97.9%

**Q.** And the inhibition at 10 µM [1, 8]?
**A.** 100%

**Q.** What about the inhibition at 10 µM [1, 9] of the same compound?
**A.** 100%

**Q.** And the CC50 at 72 h ([2]; RAW 264.7 macrophage cells)?
**A.** > 50 µM

**Q.** What about the EC50 [3, 10] of the same compound?
**A.** 10.5 ± 0.75 µM

**Q.** And the CC50 at 72 h ([4]; HepG2 hepatoma cells)?
**A.** > 50 µM

**Q.** What about the IC50 ([5]; Leishmania donovani) of the same compound?
**A.** 60 ± 5 nM

**Q.** For `COc1ccc2cc3[n+](cc2c1OC)CCc1cc2c(cc1-3)OCO2.O.[Cl-]` [Berberine (chloride hydrate)], which “Growth Inhibition (%) at 72h, 1 µM_Exp1” value ([1]; experiment 1, 72 h) is on record?
**A.** 29.91%

**Q.** And the “Growth Inhibition (%) at 72h, 1 µM_Exp2” value ([1]; experiment 2, 72 h)?
**A.** 24.54%

**Q.** What about the “Growth Inhibition (%) at 72h, 10 µM_Exp1” value ([1]; experiment 1, 72 h) of the same compound?
**A.** 98.55%

**Q.** What about the “Growth Inhibition (%) at 72h, 10 µM_Exp2” value ([1]; experiment 2, 72 h) of the same compound?
**A.** 99.87%

**Q.** With `O=C(O)CCCc1c[nH]c2ccccc12` [Indole-3-butyric acid] as the compound, how does the inhibition at 1 µM [1, 6] read?
**A.** -6.27%

**Q.** And the inhibition at 1 µM [1, 7]?
**A.** 14.8%

**Q.** What about the inhibition at 10 µM [1, 8] of the same compound?
**A.** 70.2%

**Q.** And the inhibition at 10 µM [1, 9]?
**A.** 84%

**Q.** For `CC(C)=CC[C@H](O)C1=CC(=O)c2c(O)ccc(O)c2C1=O` [(-)-Alkannin], which “Growth Inhibition (%) at 72h, 1 µM_Exp1” value ([1]; experiment 1, 72 h) is on record?
**A.** 100.44%

**Q.** What about the “Growth Inhibition (%) at 72h, 1 µM_Exp2” value ([1]; experiment 2, 72 h) of the same compound?
**A.** 100.08%

**Q.** What about the “Growth Inhibition (%) at 72h, 10 µM_Exp1” value ([1]; experiment 1, 72 h) of the same compound?
**A.** 99.90%

**Q.** And the “Growth Inhibition (%) at 72h, 10 µM_Exp2” value ([1]; experiment 2, 72 h)?
**A.** 99.93%

**Q.** Which inhibition at 1 µM [1, 6] does the source give for `CC[C@@]1(O)C(=O)OCc2c1cc1n(c2=O)Cc2cc3ccccc3nc2-1` [Camptothecin] here?
**A.** 66.4%

**Q.** And the inhibition at 1 µM [1, 7]?
**A.** 89.3%

**Q.** And the inhibition at 10 µM [1, 8]?
**A.** 91%

**Q.** What about the inhibition at 10 µM [1, 9] of the same compound?
**A.** 95.9%

**Q.** What does the source list for Evodiamine?
**A.** Growth Inhibition (%) at 72h, 1 µM_Exp1 ([1]; experiment 1, 72 h): -42.64%; Growth Inhibition (%) at 72h, 1 µM_Exp2 ([1]; experiment 2, 72 h): 25.77%; Growth Inhibition (%) at 72h, 10 µM_Exp1 ([1]; experiment 1, 72 h): 94.67%; Growth Inhibition (%) at 72h, 10 µM_Exp2 ([1]; experiment 2, 72 h): 96.80%

Source: publication PMC12608155, “Discovery of Potential Antileishmanial Compounds Through Phenotypic Screening of an Alkaloid Library” (Molecules, 2025)
